Assay results reported in patent US20230414637A1 (priority 2020, published 2023).
In brackets after ≈: the same amount, converted by molar mass. Several values for one entry are separate records, joined by “and”; a condition that tells them apart may be missing. Identical values can stand only once. Like-named read-outs stand apart in the source and are kept apart here.

Assays:
[1] = Supersaturated solution precipitation of niclosamide: amount in solution; conditions: pH 9.5, 3 mM/200 μM
[2] = test system: SARS-COV-2 syncytia; conditions: Braga et al [18]; cited from earlier work
[3] = in vitro; conditions: human
[4] = cited from earlier work
[5] = Equilibrium dissolution of AK Sci niclosamide versus pH (supernatant concentration by UV/Vis at 333 nm)
[6] = test system: SARS-CoV-2 in Vero 6 cells; conditions: cited from earlier work
[7] = test system: SARS-CoV-2 in Calu-3 cells; conditions: cited from earlier work
[8] = physchem
Protocol: The pKa is defined as the negative base-10 logarithm of the acid dissociation constant (Ka) of a solution). It is an important parameter to consider here because pKa and pH are equal when half of the acid has dissociated. […] Once the pKa is measured (or estimated) the well-known Henderson-Hasselbalch equation calculates the fractions of each species.

[9] = type: physicochemical; conditions: data and pHp theory
Source text: pH=pKa+Log10[Nic−ve]/[NicOH] Eqn 1
pHp=pKa+log(S−So)/So Eqn 4
So=the molar intrinsic solubility of the undissociated acid (NicOH), and S=the molar concentration of the salt form initially added.

[10] = test system: human airway epithelial cells; experiment: cells; conditions: Epithelial cell, read-out: IC50 for cell viability and ATP
[11] = physchem; conditions: 20 °C, pH 9.5, aqueous buffer, kinetic from dmso stock
[12] = physchem; remark: listed apart in the source
[13] = test system: Vero E6 cells; conditions: cited from earlier work
[14] = [11]; cited from earlier work
[15] = test system: SARS-CoV-2 in Huh-7 cells; conditions: infected liver Huh-7 cells, Mirabelli et al [60]; cited from earlier work
[16] = test system: human airway epithelial cells; conditions: 300 uM

SMILES: O=C(Nc1ccc([N+](=O)[O-])cc1Cl)c1cc(Cl)ccc1O [Niclosamide, 5-Chloro-N-(2-chloro-4-nitrophenyl)-2-hydroxybenzamide]
- supersaturation [1]: ~15 times
- effect on syncytia in vitro [2]: protected against syncytia in vitro
- viability at 300 uM [3]: 30%
- solubility ([4]; pH 6.4): 1.6 µg/mL (≈ 4.89 µM)
- solubility ([4]; pH 9.1): 110 µg/mL (≈ 336 µM)
- amount of niclosamide in solution ([5]; pH 6-7 (tap water, saliva)): ~2 µM
- conversion of added powder at high pH ([5]; pH 9.7, 10.0 and 10.45 carbonate-bicarbonate buffer, 1 hr stirring): converted to red crystalline micro-crystals
- IC50 ([6]; Vero 6 cells, Braga et al [18], read-out: IC50 for viral replication): 340 nM
- concentration to completely prevent viral replication ([6]; Vero 6 cells, Brunaugh et al [91], including purported enhancement by lysozyme): 0.4 µM
- IC100, complete inhibition of viral replication ([6]; Vero 6 cells, Jeon et al [14]): 1 µM
- IC50 ([6]; Vero 6 cells, Jeon et al [14], read-out: IC50 for viral replication): 280 nM
- IC50 ([6]; Vero E6 cells, Mostafa et al [29], read-out: IC50 for inhibiting viral replication): 160 nM
- IC100 for inhibiting viral replication (estimated from graph) ([7]; Calu-3 cells, Ko et al [34]): 2 to 3 µM
- IC50 ([7]; Calu-3 cells, Ko et al [34], read-out: IC50 for viral replication): 840 nM
- effect on viral replication ([7]; respiratory Calu-3 cells, 2.5 uM, Braga et al [18]): showed inhibition of viral replication
- pKa [8]: 6.52
- pH at which a 30 uM niclosamide solution can be made [9]: 8.16
- pH at which a 50 uM niclosamide solution can be made [9]: 8.39
- pH at which a 200 uM niclosamide solution can be made [9]: 9.01 and 8.92
- pH at which a 300 uM niclosamide solution can be made [9]: 9.19 and 9.10
- pH at which a 20 uM niclosamide solution can be made ([9]; pKa 7.12, So 2.53 uM): 7.96 and 7.98
- IC50 [10]: 20000 to 30000 nM
- solubility kinetic [11]: 3000 µM (≈ 981 µg/mL)
- solubility ([12]; pH 6.4, aqueous buffer): 4.89 µM (≈ 1.6 µg/mL)
- solubility ([12]; pH 9.1, aqueous buffer): 336 µM (≈ 110 µg/mL)
- CC50 [13]: 205000 nM
- concentration to which host cell viability extended [13]: > 100 µM
- factor of increase of fitted logarithmic dissolution rate (over pH range 8.62 to 9.44, nominal 0.5 mM-1 mM): over 3 ×
- fitted logarithmic dissolution rate, factor of ln(x) (pH 9.44 buffer, more optimized (standardized) stirring): 94
- acute oral toxicity [14]: > 1000 mg/kg
- IC50 [15]: 140 nM
- airway epithelial cells still alive upon washout [16]: 17%
- cell death ([16]; 6 hr): 83%
